Measurements: US20030104393A1, “Blood assessment of injury” (priority 2000, published 2003)

Assays:
[1] = tested on: neurons; assay: Status epilepticus produced by kainic acid: neuronal injury; type: in vivo, rat; conditions: kainic acid 10 mg/kg i.p., 24 hours later
Procedure: (§1) Status epilepticus is produced by intraperitoneally injecting a glutamate analogue/excitotoxin, kainic acid (10 mg/kg i.p.). Animals with kainate-induced seizures are observed following drug administration to ensure that they continue to have complex seizures over a 30 minute period.

[2] = tested on: blood cells; assay: Genes induced in blood 24 hours following kainate induced seizures (Affymetrix microarray); type: in vivo, rat; conditions: for Average fold induction / Minimum fold induction: rat blood 24 h after kainate induced seizures vs untouched controls
Procedure: as §1
All animals are allowed to survive for 24 hours following each treatment. At that time they are deeply anesthetized with ketamine (100 mg/kg) and xylazine (20 mg/kg) given intraperitoneally. Once anesthetized, the chest is opened and a direct cardiac puncture performed with a syringe and 10 cc of blood is aspirated. Immediately following removal of the blood, the animal is decapitated while deeply anesthetized and the brain removed.
One day after hypoxia, status epilepticus, hypoglycemia, ischemic stroke, and hemorrhagic stroke are produced in adult rats, RNA or protein is isolated from the blood cells and from the brains of the animals described in Example 1. The pattern of genes or proteins expressed in the blood cells following each of these types of injury—hypoxia, status epilepticus, hypoglycemia, ischemic stroke, and hemorrhagic stroke is captured on a commercially available microarray (Affymetrix chip). The pattern of gene or protein expression is defined using an expression method, which then forms a genomic or proteomic organ injury database, which is used in assessing injury.
For the tables of genes induced in the blood, the genome expression of blood in the hypoxic animals (3 animals) was compared to the genome expression of blood in untouched control animals (3 animals). The genome expression of blood in the animals with status epilepticus (3 animals) was compared to the genome expression of blood in the untouched control animals (3 animals). The genome expression of blood in the animals with stroke (3 animals) was compared to the genome expression of blood in the sham operated control animals (3 animals). In each case the accession number of the gene and the fold change in gene expression is given—with a maximum estimate and a minimum estimate.
Table 2 sets forth genes induced in the blood of rats 24 hours following kainate induced seizures (n=3 rats) as compared with genes expressed in the blood of untouched control rats (n=3 rats). The accession number of the gene is given, the name of the gene is given where known, the average fold induction is given, as well as the minimum fold induction is given for each gene. A number of the genes are ESTs that have not yet been subjected to a BLAST search. This list was shortened to show only those genes induced at least 2.8 fold. Over 100 genes were induced following kainate on arrays that contained over 8000 genes.

[3] = gene AF027571_s_at phospholipase C-beta 4 isoform (PLC-b4)
[4] = gene AF091563_i_at isolate QIL-LD1 olfactory receptor
[5] = gene AF102552_s_at ankyrin G isoform
[6] = gene D84485_at PMSG-induced ovarian mRNA
[7] = gene L42855_at RNA polymerase II transcription factor SIII p18 subunit
[8] = gene L81136cds_f_at Rps2r1 preliminary DNA
[9] = gene M96159_at adenylyl cyclase type V
[10] = gene S54212_at ciliary neurotrophic factor receptor alpha
[11] = gene U66566_at receptor type protein tyrosine phophatase psi
[12] = gene X06827_at porphobilinogen deaminase
[13] = gene Z28351exon_s_at 25-hydroxyvitamin D3 24-hydroxylase

## C=C(C)[C@H]1CN[C@H](C(=O)O)[C@H]1CC(=O)O [kainate, kainic acid]
[1]
  Neuronal injury: diffuse neuronal injury
[2]; [3]
  Average fold induction: 4.15 fold
  Minimum fold induction: 2.5 fold
[2]; gene AF045464_s_at
  Average fold induction: 6.5 fold
  Minimum fold induction: 2.5 fold
[2]; gene AF079162_at patched (ptc)
  Average fold induction: 5.4 fold
  Minimum fold induction: 3.2 fold
[2]; [4]
  Average fold induction: 3.4 fold
  Minimum fold induction: 2.4 fold
[2]; [5]
  Average fold induction: 4.6 fold
  Minimum fold induction: 2.4 fold
[2]; [6]
  Average fold induction: 11.4 fold
  Minimum fold induction: 3.1 fold
[2]; gene D89863_g_at (M-ras) M-Ras
  Average fold induction: 5.6 fold
  Minimum fold induction: 2.3 fold
[2]; [7]
  Average fold induction: 4.32 fold
  Minimum fold induction: 3.4 fold
[2]; [8]
  Average fold induction: 3.9 fold
  Minimum fold induction: 2.7 fold
[2]; gene L81138exon Rps2r gene
  Average fold induction: 5.5 fold
  Minimum fold induction: 2.3 fold
[2]; gene M91234_f_at VL30 element
  Average fold induction: 4.4 fold
  Minimum fold induction: 2.5 fold
[2]; gene M91235_f_at VL30 element
  Average fold induction: 3.9 fold
  Minimum fold induction: 3 fold
[2]; [9]
  Average fold induction: 10 fold
  Minimum fold induction: 2.9 fold
[2]; gene Rc_AA799614_at
  Average fold induction: 4.7 fold
  Minimum fold induction: 2.5 fold
[2]; gene Rc_AA852046_s_at
  Average fold induction: 4.3 fold
  Minimum fold induction: 2.5 fold
[2]; gene Rc_AA891828_at
  Average fold induction: 4 fold
  Minimum fold induction: 2.6 fold
[2]; gene Rc_AA894273_at
  Average fold induction: 5.2 fold
  Minimum fold induction: 2.8 fold
[2]; gene Rc_AA925529_at
  Average fold induction: 4 fold
  Minimum fold induction: 3 fold
[2]; gene Rc_AA955182_g_at
  Average fold induction: 9 fold
  Minimum fold induction: 2.3 fold
[2]; gene Rc_AI104924_f_at
  Average fold induction: 4.1 fold
  Minimum fold induction: 3.3 fold
[2]; [10]
  Average fold induction: 2.8 fold
  Minimum fold induction: 2.6 fold
[2]; [11]
  Average fold induction: 5.5 fold
  Minimum fold induction: 4.3 fold
[2]; gene U73030_at
  Average fold induction: 4.1 fold
  Minimum fold induction: 2.4 fold
[2]; [12]
  Average fold induction: 3.6 fold
  Minimum fold induction: 3 fold
[2]; gene X60675_at interleukin 10
  Average fold induction: 3.6 fold
  Minimum fold induction: 2.3 fold
[2]; gene X76697_at B7 antigen
  Average fold induction: 5.7 fold
  Minimum fold induction: 2.5 fold
[2]; [13]
  Average fold induction: 3.5 fold
  Minimum fold induction: 2.3 fold
[2]; gene rc_AI102562_at
  Average fold induction: 3 fold
  Minimum fold induction: 2.4 fold
[2]; rat blood, arrays that contained over 8000 genes
  Number of genes induced following kainate: Over 100 genes
